Measured values published in patent US10421743B2, “Tetrahydroisoquinolines as PRMT5 inhibitors” (CTXT PTY LTD, priority 2016, dated 2019).
pEC50, pIC50: −log10 of the molar value. Where two headings read alike, the source gives them in different places.

Tests used:
[1] = target: Full-length PRMT5 enzyme co-expressed with His6-MEP50 (Homo sapiens (Human), UniProt O14744); assay: PRMT5 Biochemical Assay (Transcreener EPIGEN methyltransferase, fluorescence polarisation); settings: histone H4 derived peptide substrate 1 μM, 1 μM S-Adenosyl methionine, 4 hours at 37 degree Celsius
Protocol: Compounds of the Invention may be Tested for In Vitro Activity in the Following Assay:
A histone H4 derived peptide is used as substrate (amino acid sequence: […]NH2). Full-length PRMT5 enzyme (NCBI Reference sequence NP_006100.2) was co-expressed with His6-MEP50 in insect cells and purified via Nickel immobilized metal affinity and gel filtration chromatography (“the enzyme”).
The 6 μL reactions are run in Greiner brand black 384-well low volume assay plates. All reactions contained assay buffer (phosphate buffered saline, 0.01% (v/v) Tween-20, 0.01% (w/v) albumin from chicken egg white, 1 mM Dithiothreitol, 1 μM peptide substrate, 1 μM S-Adenosyl methionine, and 15 ng/reaction enzyme, with the enzyme being omitted from negative control reactions. Compounds were added in a volume of 100 nL from dilution series prepared in DMSO, positive and negative control reactions receiving the same volume DMSO without compound. The plates were sealed with adhesive seals and incubated for 4 hours at 37 degree Celsius. Reaction progress was measured using the Transcreener™ EPIGEN methyltransferase assay (BellBrook Labs, Madison, Wis.) as recommended by the manufacturer. To each reaction 2 μL detection mix were added, containing coupling enzymes, fluorescence polarisation tracer, and AMP antibody. Plates were incubated for 90 minutes before being read on a Perkin Elmer EnVision™ plate reader in fluorescence polarisation mode. IC50 values were obtained from the raw readings by calculating percent inhibition (% I) for each reaction relative to controls on the same plate (% I=(I−CN)/(CP−CN) where CN/CP are the averages of the negative/positive reactions, respectively), then fitting the % I data vs. compound concentration [I] to % I=(A+((B−A)/(1+((C/[I])^D)))) where A is the lower asymptote, B is the upper asymptote, C is the IC50 value, and D is the slope.

[2] = system: PRMT5 (symmetrical dimethylation of arginine in TE11 cells); assay: PRMT5 Biomarker Assay (symmetrical dimethylation of arginine, Di-Methyl Histone H4 Arginine 3); format: cell-based; settings: Homo sapiens, TE-11, 72 hours incubation, anti-Di-Methyl Histone H4 Arginine 3 antibody
Protocol: Compounds of the Invention may be Tested for Potency to Inhibit Symmetrical Dimethylation of Arginine in the Following Assay:
The cell line TE11 was seeded at a density of 6,000 cells per well in 96 well optical quality tissue culture plates in DME medium and 10% foetal bovine serum, and allowed to adhere for 5 hours under standard culture conditions (37 degree Celsius, 5% CO2). Compound dilutions prepared in DMSO were added to the medium, with negative control wells reserved for treatment with DMSO only and maximum inhibition controls receiving a potent PRMT5 inhibitor compound at 1 μM concentration. After incubation for 72 hours, the cells were fixed with 3.7% formaldehyde in PBS for 30 minutes at room temperature, washed with phosphate buffer saline and blocked with Odyssey blocking buffer (LI-COR, Lincoln, Nebr.). Rabbit anti-Di-Methyl Histone H4 Arginine 3 specific antibody (Epigentek) in Odyssey blocking buffer was added and incubated for 14 hours at 4 degree Celsius. After washing, anti-rabbit secondary antibody labelled with Alexa647 dye (LifeTechnologies) and Hoechst 33342 (1 μg/mL, SigmaAldrich) were added for 1 hour incubation. Plates were washed and read on a PerkinElmer Envision 2103 in fluorescence intensity scanning mode (24 scans across the well area). The plates were imaged on a PerkinElmer Phenix high content imaging platform. Using a Columbus image analysis pipeline, individual nuclei were located by Hoechst 33342 stain and the methylation level was calculated from the Alexa647-related intensity in the same area. IC50 values were obtained from the mean Alexa647-related intensity per cell by calculating percent inhibition (% I) for each well relative to controls on the same plate (% I=(I−CN)/(CP−CN) where CN/CP are the averages of the negative/maximum inhibition controls, respectively), then fitting the % I data vs. compound concentration [I] to % I=(A+((B−A)/(1+((C/[I])^D)))) where A is the lower asymptote, B is the upper asymptote, C is the IC50 value, and D is the slope.

[3] = target: Full-length (FL)-PRMT5-MEP50 enzyme complex (Homo sapiens (Human), UniProt O14744); assay: PRMT5-MEP50 Enzyme Methylation Assay (SAMDI); format: biochemical; settings: 0.5 nM PRMT5-MEP50, 75 nM biotinylated H4R3(Me1) peptide, 15 μM SAM, 150 minutes at 37° C.
Protocol: PRMT5-MEP50 Enzyme Methylation Assay
PRMT5/MEP50 biochemical assay is a direct measurement of the methylation activity of the enzyme complex on a short peptide substrate derived from the N-terminus of H4 histone. Methylation experiment is performed with recombinant protein. The assessment of inhibitory effect (IC50) of small molecules is measured by the effectiveness of the compounds to inhibit this reaction.
In this assay, the potency (IC50) of each compound was determined from a twenty-point (1:2 serial dilution; top compound concentration of 100000 nM) titration curve using the following outlined procedure. To each well of a white ProxiPlus 384 well-plate, 100 nL of compound (1% DMSO in final assay volume of 10 μL) was dispensed, followed by the addition of 8 μL of 1× assay buffer (50 mM Bicine pH 8.0, 1 mM DTT, 0.004% Tween20, 0.01% BSA) containing 0.5 nM of Full-length (FL)-PRMT5-MEP50 enzyme complex (recombinant proteins from baculovirus-transfected Sf21 cells: FL-PRMT5; MW=[…] and FL-MEP50; MW=38614). Plates were sealed and placed in a 37° C. humidified chamber for 30 minutes pre-incubation with compounds. Subsequently, each reaction was initiated by the addition of 2 μL 1× assay buffer containing 75 nM biotinylated H4R3(Me1) peptide, and 15 μM S-(5′-Adenosyl)-L-Methionine Chloride (SAM). The final reaction in each well of 10 μL consists of 0.5 nM PRMT5-MEP50,75 nM biotinylated-peptide, and 15 μM SAM. Methylation reactions were allowed to proceed for 150 minutes in a sealed plate at 37° C. Reactions were immediately quenched by the addition of 1 μL of 10% formic acid. Plates were then frozen and shipped to SAMDI™ Tech Inc. to determine the percent conversion from […]. IC50 values were determined by 7 parameters biphasic fit model plotting the percent product conversion vs. (Log10) compound concentrations.

[4] = system: PRMT5 (symmetric dimethylation of arginine (SDMA) in MCF-7 cells); assay: PRMT5 Cell Target Engagement (TE) Assay (SDMA, high content imaging); format: cell-based; settings: Homo sapiens, MCF7, 72 h, treated for 3 days, top compound concentration of 10000 nM
From the text: PRMT5 Cell Target Engagement (TE) Assay
The PRMT5 TE assay is a biomarker assay for identifying compounds that inhibit symmetric dimethylation of arginine (SDMA) of PRMT5 substrates. This assay detects symmetrically dimethylated nuclear proteins using high content imaging technology. Detection of the expression of symmetrically dimethylated nucleo proteins is through a mixture of primary rabbit monoclonal antibodies to SDMA (CST 13222), which in turn recognized by an Alexafluor 488 dye-conjugated anti-rabbit IgG secondary antibody. The IN Cell Analyzer 2200 measures nuclear Alexafluor 488 fluorescent dye intensity that is directly related to the level of expression of symmetrically dimethylated nuclear proteins at the single cell level. Nuclear AF488 dye intensities are compared to the mean value for DMSO treated cells […] to report percent of inhibition for each compound-treated well.
In this assay, the cell potency (EC50) of each compound was determined from a ten point (1:3 serial dilution; top compound concentration of 10000 nM) titration curve using the following outlined procedure. Each well of a BD falcon collagen coated black/clear bottom 384-well plate was seeded with 4000 MCF-7 cells and allowed to attach for 5 hours. Media from cell plate was removed at 0.5 mm above the bottom of the plate and replaced with 30 μL of fresh media containing 1.2× compounds in 0.1% DMSO. Cells were treated for 3 days in 37° C. CO2 incubator. On day 3, cells were fixed with Cytofix, permeabilized with 0.4% Triton-X-100/Cytofix, and washed with D-PBS without Ca/Mg. Cells were blocked with Licor Odessey blocking reagent for one hour at room temperature, followed by incubation with anti-SDMA (1:1000) antibody at 4° C. overnight. 1° antibody was removed, followed by three washings with DPBS without Ca/Mg and 0.05% Tween20. Hoechst (5 μg/ml), Cell Mask deep stain (1:2000) and Alexa488-conjugated goat anti-rabbit IgG (2 μg/mL) was added for 1 hour at room temperature. A final washing step (three washes) was performed before sealing plate for imaging on In Cell Analyzer 2200. Images from analyzer were uploaded to Columbus (at WP) for image analysis. IC50 values were determined by 4 parameters robust fit of percent fluorescence units vs. (Log10) compound concentrations.

[5] = Enzyme Methylation Assay (EC50—1, nM), first EC50 of biphasic fit
[6] = first EC50 of biphasic fit, read-out: Enzyme Methylation Assay (EC50—1)
[7] = second EC50 of biphasic fit, read-out: Enzyme Methylation Assay (EC50—2)

Sequence of Full-length (FL)-PRMT5-MEP50 enzyme complex (O14744 whole entry): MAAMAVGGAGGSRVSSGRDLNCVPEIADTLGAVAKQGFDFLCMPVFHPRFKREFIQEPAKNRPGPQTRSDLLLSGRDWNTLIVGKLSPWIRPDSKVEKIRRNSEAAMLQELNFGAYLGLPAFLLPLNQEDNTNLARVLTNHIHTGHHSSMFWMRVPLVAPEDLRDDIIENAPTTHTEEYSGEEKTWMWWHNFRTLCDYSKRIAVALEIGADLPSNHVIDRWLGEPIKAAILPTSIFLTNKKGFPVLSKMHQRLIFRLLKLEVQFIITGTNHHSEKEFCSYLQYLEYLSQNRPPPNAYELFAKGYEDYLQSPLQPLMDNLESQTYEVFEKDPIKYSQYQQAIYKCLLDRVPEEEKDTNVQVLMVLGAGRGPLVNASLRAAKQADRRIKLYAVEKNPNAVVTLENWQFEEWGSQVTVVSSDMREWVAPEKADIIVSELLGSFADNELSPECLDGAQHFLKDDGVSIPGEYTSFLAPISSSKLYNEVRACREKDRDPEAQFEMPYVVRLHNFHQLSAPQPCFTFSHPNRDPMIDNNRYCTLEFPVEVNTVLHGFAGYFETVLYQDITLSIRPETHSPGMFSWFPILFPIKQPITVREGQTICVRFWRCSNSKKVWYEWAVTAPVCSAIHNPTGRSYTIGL
Sequence of Full-length (FL)-PRMT5-MEP50 enzyme complex (Q9BQA1 whole entry partner): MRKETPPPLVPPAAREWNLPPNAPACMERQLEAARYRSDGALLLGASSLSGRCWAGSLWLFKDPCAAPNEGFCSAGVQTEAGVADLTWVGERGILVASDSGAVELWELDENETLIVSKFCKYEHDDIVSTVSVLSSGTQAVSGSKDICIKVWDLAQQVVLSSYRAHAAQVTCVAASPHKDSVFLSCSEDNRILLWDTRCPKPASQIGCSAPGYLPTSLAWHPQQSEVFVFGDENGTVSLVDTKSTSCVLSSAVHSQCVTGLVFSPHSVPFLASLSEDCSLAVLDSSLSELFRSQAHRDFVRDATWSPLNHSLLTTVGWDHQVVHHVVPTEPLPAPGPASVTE
Sequence of Full-length PRMT5 enzyme co-expressed with His6-MEP50 (O14744 whole entry): as the sequence (O14744 whole entry) above
Sequence of Full-length PRMT5 enzyme co-expressed with His6-MEP50 (Q9BQA1 whole entry partner): as the sequence (Q9BQA1 whole entry partner) above

Row | pEC50 [4] | pEC50 [3, 6] | pEC50 [3, 7] | SMILES | pIC50 [1] | pIC50 [2] | EC50 [3, 5] | EC50 ([3]; Enzyme Methylation Assay (EC50—2, nM), second EC50 of biphasic fit)
1 | – | 7.68 | 5.07 | COc1ccc2c(c1)CN[C@H]([C@H](O)CNC(=O)c1cc(NC3COC3)ncn1)C2 [Example 4, N—((R)-2-hydroxy-2-((S)-7-methoxy-1,2,3,4-tetrahydroisoquinolin-3-yl)ethyl)-6-(oxetan-3-ylamino)pyrimidine-4-carboxamide] | – | – | – | –
2 | 5.67 | 8.70 | 6.05 | CCOc1cc(-c2nnc(C)o2)ccc1C(=O)NC[C@@H](O)[C@@H]1Cc2ccc(OC)cc2CN1 [Example 5, 2-ethoxy-N-{(2R)-2-hydroxy-2-[(3S)-7-methoxy-1,2,3,4-tetrahydroisoquinolin-3-yl]ethyl}-4-(5-methyl-1,3,4-oxadiazol-2-yl)benzamide] | – | – | – | –
3 | 6.69 | 8.70 | 6.11 | CCOc1cc(-c2nnc(C3CC3)o2)ccc1C(=O)NC[C@@H](O)[C@@H]1Cc2ccc(OC)cc2CN1 [Example 6, 4-(5-cyclopropyl-1,3,4-oxadiazol-2-yl)-2-ethoxy-N-{(2R)-2-hydroxy-2-[(3S)-7-methoxy-1,2,3,4-tetrahydroisoquinolin-3-yl]ethyl}benzamide] | – | – | – | –
4 | 6.78 | 8.52 | 6.00 | COc1ccc2c(c1)CN[C@H]([C@H](O)CNC(=O)c1ccc(-c3nnc(C(C)(C)C)o3)cc1)C2 [Example 7] | – | – | – | –
5 | 7.10 | 9.21 | 6.65 | COc1ccc2c(c1)CN[C@H]([C@H](O)CNC(=O)c1ccc(-c3ncc4n3CCCC4)cc1)C2 [Example 8] | – | – | – | –
6 | 7.15 | 9.25 | 6.48 | COc1ccc2c(c1)CN[C@H]([C@H](O)CNC(=O)c1ccc(-c3ncnn3C3CC3)cc1)C2 [Example 9] | – | – | – | –
7 | 5.33 | 7.49 | 4.94 | COc1ccc2c(c1)CN[C@H]([C@H](O)CNC(=O)c1cccnc1)C2 [Example 12] | – | – | – | –
8 | 5.33 | 7.68 | 5.09 | CCOc1ncccc1C(=O)NC[C@@H](O)[C@@H]1Cc2ccc(OC)cc2CN1 [Example 13] | – | – | – | –
9 | 5.49 | 7.92 | 5.37 | COc1ccc2c(c1)CN[C@H]([C@H](O)CNC(=O)c1ccccc1Cl)C2 [Example 14] | – | – | – | –
10 | 5.66 | 7.64 | 5.14 | CC(=O)N1CCC(Nc2cc(C(=O)NC[C@@H](O)[C@@H]3Cc4ccc(C(F)(F)F)cc4CN3)ncn2)CC1 [Example 15] | – | – | – | –
11 | 6.07 | 8.15 | 5.43 | CCc1ccc2c(c1)CN[C@H]([C@H](O)CNC(=O)c1cc(NC3CCN(C(C)=O)CC3)ncn1)C2 [Example 16] | – | – | – | –
12 | 5.00 | 6.74 | 4.46 | CC(=O)N1CCC(Nc2cc(C(=O)NC[C@@H](O)[C@@H]3Cc4ccc(C#N)cc4CN3)ncn2)CC1 [Example 17] | – | – | – | –
13 | 7.72 | 9.10 | 6.73 | COC(=O)N1CCC(Nc2cc(C(=O)NC[C@@H](O)[C@@H]3Cc4ccc(OC)cc4CN3)ccn2)CC1 [Example 18] | – | – | – | –

Row | SMILES | pEC50 [4] | pEC50 [3, 6] | pEC50 [3, 7] | pIC50 [1] | pIC50 [2] | EC50 [3, 5] | EC50 ([3]; Enzyme Methylation Assay (EC50—2, nM), second EC50 of biphasic fit)
14 | CCOc1cc(C(=O)N2C3CCC2COC3)ccc1C(=O)NC[C@@H](O)[C@@H]1Cc2ccc(OC)cc2CN1 [Example 1, 4-(3-Oxa-8-azabicyclo[3.2.1]octane-8-carbonyl)-2-ethoxy-N—((R)-2-hydroxy-2-((S)-7-methoxy-1,2,3,4-tetrahydroisoquinolin-3-yl)ethyl)benzamide] | 7.72 | – | – | 7.82 | 9.72 | 0.27 nM | 5 nM
15 | O=C(NC[C@@H](O)[C@@H]1Cc2ccc(C(F)F)cc2CN1)c1ccc(C(=O)N2C3CCC2COC3)cc1 [Example 11] | 6.87 | – | 6.35 | – | – | 0.93 nM | –
